# Assay results reported in US11096985B2, “Antimicrobial peptides, their variants and uses” (priority 2015, dated 2021).
# Where a SMILES comes first, the peptide text is derived from it. [ ]: non-standard residue; d: D form.
# Assays:
# [1] = test system: clinical strains of Serratia marcescens; assay: MIC, clinical strains of Serratia marcescens; format: cell-based; set-up: unit: µg/mL; conditions: microdilution, Muller Hinton broth-cation adjusted, 0.02% BSA, 0.2% acetic acid
# Experimental: (§1) Minimum inhibition concentrations (MICs) were determined against Escherichia coli (ATCC 25922), Staphylococcus aureus (ATCC 25923), Klebsiella pneumoniae (ATCC 10031) and Pseudomonas aeruginosa (ATCC 27853). Also clinical strains of E. coli, K. pneumoniae, E. cloacae, P. aeruginosa, Serratia marcescens, Proteus mirabilis, S. pneumoniae, Acinetobacter baumannii, A. johnsonii and S. aureus were used for MICs assays. Additionally, clinical strains of yeast including Candida albicans, C. glabrata, C. parapsilosis and C. quillermondiae were used. The susceptibility of these microorganisms to Chain peptides were determined using micro broth dilution assay. Colonies of the respective microorganism from Muller Hinton (MH) agar plates incubated overnight were suspended in MH broth media and final concentration of microorganism was adjusted to 5.0×10^5 cfu/ml. An aliquot of 10 μl of each Chain peptide, or gentamicin, tetracycline as reference antibiotics were added in differing concentrations along with 90 μl of bacterial suspension to 96 well polypropylene plates and incubated at 37° C. for 20 to 24 hours. Concentrations of Chain peptides and reference antibiotics ranged from 0.125 to 128 μg/ml and the MICs were recorded as the lowest concentration with no visual growth of bacteria. Similarly, antifungal MICs were tested in Potato dextrose broth.
# (§2) Clinical strains of yeasts including Candida albicans, C. glabrata, C. parapsilosis and C. quillermondiae were also tested with the 12 Chain peptides. The minimum inhibitory concentration (MICs) varied between these peptides and are presented in Tables 4a, 4b, 4c and 5a, 5b, 5c. Peptides Chain 105, 201 and 308 are broad spectrum antimicrobials with MICs between 0.5-32 μg/ml against all the bacteria and yeasts tested, except Serratia marcescens and Proteus mirabilis, against which the MICs were between 64-128 μg/ml. Peptide Chain 306 has narrow spectrum activity against E.coli at 1 μg/ml and for the rest of the bacterial strains at >32 μg/ml (FIG. 10).
# [2] = test system: clinical strains of Escherichia coli; assay: MIC, clinical strains of E. coli; format: cell-based; set-up: unit: μg/ml; conditions: microdilution, Muller Hinton broth-cation adjusted, 0.02% BSA, 0.2% acetic acid
# Experimental: as §1, §2
# [3] = test system: clinical strains of Klebsiella pneumoniae; assay: MIC, clinical strains of K. pneumoniae; format: cell-based; set-up: unit: μg/ml; conditions: microdilution, Muller Hinton broth-cation adjusted, 0.02% BSA, 0.2% acetic acid
# Experimental: as §1, §2
# [4] = test system: clinical strains of Streptococcus pneumoniae; assay: MIC, clinical strains of Streptococcus pneumoniae; format: cell-based; set-up: unit: µg/mL; conditions: microdilution, Muller Hinton broth-cation adjusted, 0.02% BSA, 0.2% acetic acid
# Experimental: as §1, §2
# [5] = test system: clinical strains of Enterobacter cloacae; assay: MIC, clinical strains of Enterobacter cloacae; format: cell-based; set-up: unit: μg/ml; conditions: microdilution, Muller Hinton broth-cation adjusted, 0.02% BSA, 0.2% acetic acid
# Experimental: as §1, §2
# [6] = test system: clinical strains of Proteus mirabilis; assay: MIC, clinical strains of Proteus mirabilis; format: cell-based; set-up: unit: µg/mL; conditions: microdilution, Muller Hinton broth-cation adjusted, 0.02% BSA, 0.2% acetic acid
# Experimental: as §1, §2
# [7] = test system: clinical strains of C. parapsilosis; assay: MIC, clinical yeast strains, C. parapsilosis; format: cell-based, Candida parapsilosis; set-up: unit: μg/ml
# Experimental: as §1, §2
# [8] = test system: clinical strains of Candida albicans; assay: MIC, clinical yeast strains, Candida albicans; format: cell-based; set-up: unit: μg/ml
# Experimental: as §1, §2
# [9] = test system: clinical strains of C. quillermondiae; assay: MIC, clinical yeast strains, C. quillermondiae; format: cell-based; conditions: C. quillermondiae clinical yeast strain 1
# Experimental: as §1, §2
# [10] = test system: clinical strains of Pseudomonas aeruginosa; assay: MIC, clinical strains of P. aeruginosa; format: cell-based; set-up: unit: μg/ml; conditions: microdilution, Muller Hinton broth-cation adjusted, 0.02% BSA, 0.2% acetic acid
# Experimental: as §1, §2
# [11] = test system: clinical strains of Staphylococcus aureus; assay: MIC, clinical strains of S. aureus; format: cell-based; set-up: unit: μg/ml; conditions: microdilution, Muller Hinton broth-cation adjusted, 0.02% BSA, 0.2% acetic acid
# Experimental: as §1, §2
# [12] = test system: clinical strains of C. glabrata; assay: MIC, clinical yeast strains, C. glabrata; format: cell-based, Candida glabrata; set-up: unit: μg/ml
# Experimental: as §1, §2
structure (smiles),measurement,setting,value
CC[C@@H](C)[C@@H](N)C(=O)N[C@H](Cc1c[nH]c2ccccc12)C(=O)N[C@H](CCCCN)C(=O)N[C@H](CCCNC(=N)N)C(=O)N[C@H](Cc1ccccc1)C(=O)N[C@H](CCCNC(=N)N)C(=O)N[C@H](CC(C)C)C(=O)N[C@H](Cc1ccccc1)C(=O)N[C@H](CCCCN)C(=O)N[C@H](CCCCN)C(=O)N[C@H](Cc1c[nH]c2ccccc12)C(=O)O [Chain304D] (H-[dI][dW][dK][dR][dF][dR][dL][dF][dK][dK][dW]-OH),Minimum inhibitory concentration,[1]; Serratia marcescens clinical strain 1,>128
same,Minimum inhibitory concentration,[1]; Serratia marcescens clinical strain 2,>128
same,Minimum inhibitory concentration,[1]; Serratia marcescens clinical strain 3,>128
same,Minimum inhibitory concentration,[1]; Serratia marcescens clinical strain 4,>128
same,Minimum inhibitory concentration,[1]; Serratia marcescens clinical strain 5,>128
same,Minimum inhibitory concentration,[2]; Escherichia coli clinical strain 1,1
same,Minimum inhibitory concentration,[2]; Escherichia coli clinical strain 2,16
same,Minimum inhibitory concentration,[2]; Escherichia coli clinical strain 3,16
same,Minimum inhibitory concentration,[2]; Escherichia coli clinical strain 4,32
same,Minimum inhibitory concentration,[2]; Escherichia coli clinical strain 5,32
same,Minimum inhibitory concentration,[3]; Klebsiella pneumoniae clinical strain 1,>128
same,Minimum inhibitory concentration,[3]; Klebsiella pneumoniae clinical strain 2,>128
same,Minimum inhibitory concentration,[3]; Klebsiella pneumoniae clinical strain 3,>128
same,Minimum inhibitory concentration,[3]; Klebsiella pneumoniae clinical strain 4,>128
same,Minimum inhibitory concentration,[3]; Klebsiella pneumoniae clinical strain 5,64
same,Minimum inhibitory concentration,[4]; Streptococcus pneumoniae clinical strain 1,128
same,Minimum inhibitory concentration,[4]; Streptococcus pneumoniae clinical strain 2,128
same,Minimum inhibitory concentration,[4]; Streptococcus pneumoniae clinical strain 3,128
same,Minimum inhibitory concentration,[4]; Streptococcus pneumoniae clinical strain 4,128
same,Minimum inhibitory concentration,[4]; Streptococcus pneumoniae clinical strain 5,64
same,Minimum inhibitory concentration,[5]; Enterobacter cloacae clinical strain 1,64
same,Minimum inhibitory concentration,[5]; Enterobacter cloacae clinical strain 2,64
same,Minimum inhibitory concentration,[5]; Enterobacter cloacae clinical strain 3,128
same,Minimum inhibitory concentration,[5]; Enterobacter cloacae clinical strain 4,128
same,Minimum inhibitory concentration,[5]; Enterobacter cloacae clinical strain 5,32
same,Minimum inhibitory concentration,[6]; Proteus mirabilis clinical strain 1,>128
same,Minimum inhibitory concentration,[6]; Proteus mirabilis clinical strain 2,>128
same,Minimum inhibitory concentration,[6]; Proteus mirabilis clinical strain 3,>128
same,Minimum inhibitory concentration,[6]; Proteus mirabilis clinical strain 4,>128
same,Minimum inhibitory concentration,[6]; Proteus mirabilis clinical strain 5,>128
same,Minimum inhibitory concentration,[7]; C. parapsilosis clinical yeast strain 1,64
same,Minimum inhibitory concentration,[7]; C. parapsilosis clinical yeast strain 2,64
same,Minimum inhibitory concentration,[7]; C. parapsilosis clinical yeast strain 3,32
same,Minimum inhibitory concentration,[7]; C. parapsilosis clinical yeast strain 4,16
same,Minimum inhibitory concentration,[8]; Candida albicans clinical yeast strain 1,16
same,Minimum inhibitory concentration,[8]; Candida albicans clinical yeast strain 2,16
same,Minimum inhibitory concentration,[8]; Candida albicans clinical yeast strain 3,16
same,Minimum inhibitory concentration,[8]; Candida albicans clinical yeast strain 4,16
same,Minimum inhibitory concentration,[8]; Candida albicans clinical yeast strain 5,32
same,Minimum inhibitory concentration,[9],16
same,Minimum inhibitory concentration,[10]; Pseudomonas aeruginosa clinical strain 1,32
same,Minimum inhibitory concentration,[10]; Pseudomonas aeruginosa clinical strain 2,64
same,Minimum inhibitory concentration,[10]; Pseudomonas aeruginosa clinical strain 3,64
same,Minimum inhibitory concentration,[10]; Pseudomonas aeruginosa clinical strain 4,64
same,Minimum inhibitory concentration,[10]; Pseudomonas aeruginosa clinical strain 5,16
same,Minimum inhibitory concentration,[11]; Staphylococcus aureus clinical strain 1,32
same,Minimum inhibitory concentration,[11]; Staphylococcus aureus clinical strain 2,32
same,Minimum inhibitory concentration,[11]; Staphylococcus aureus clinical strain 3,16
same,Minimum inhibitory concentration,[11]; Staphylococcus aureus clinical strain 4,16
same,Minimum inhibitory concentration,[11]; Staphylococcus aureus clinical strain 5,16
same,Minimum inhibitory concentration,[12]; C. glabrata clinical yeast strain 1,16
same,Minimum inhibitory concentration,[12]; C. glabrata clinical yeast strain 2,16
same,Minimum inhibitory concentration,[12]; C. glabrata clinical yeast strain 3,8
same,Minimum inhibitory concentration,[12]; C. glabrata clinical yeast strain 4,64
